Assay results taken from PubChem BioAssay AID1963986 (Molecular Pharmacology Branch, DTP, NCI, 2024).

Test system: 171881-019-R-J1-PDC tumor spheroid viability
Experiment: Anticancer human tumor 171881-019-R-J1-PDC patient-derived invasive breast carcinoma cell line growth inhibition [PI3K]
Settings: spheroids with HUVEC and MSC; for IC50: curve of first compound; for viability, T/C: stronger effect = lower value
Procedure, shortened: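 Viability of mixed-cell spheroids was determined after exposure to pairwise combinations, one partner being inavolisib, alpelisib, duvelisib or copanlisib. Highest tested concentration matched clinical Cmax where known and 10 microM where not, descending in half-log steps.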

[1] = second compound 0.0316 µM, first compound 0.0316 µM
[2] = second compound 0.0316 µM, first compound 0.1 µM
[3] = second compound 0.0316 µM, first compound 0.316 µM
[4] = second compound 0.0316 µM, first compound 1 µM
[5] = second compound 0.0316 µM, first compound 3.16 µM
[6] = second compound 0.0316 µM, first compound 10 µM
[7] = second compound 0.1 µM, first compound 0.0316 µM
[8] = second compound 0.1 µM, first compound 0.1 µM
[9] = second compound 0.1 µM, first compound 0.316 µM
[10] = second compound 0.1 µM, first compound 1 µM
[11] = second compound 0.1 µM, first compound 3.16 µM
[12] = second compound 0.1 µM, first compound 10 µM
[13] = second compound 0.316 µM, first compound 0.0316 µM
[14] = second compound 0.316 µM, first compound 0.1 µM
[15] = second compound 0.316 µM, first compound 0.316 µM
[16] = second compound 0.316 µM, first compound 1 µM
[17] = second compound 0.316 µM, first compound 3.16 µM
[18] = second compound 0.316 µM, first compound 10 µM
[19] = second compound 1 µM, first compound 0.0316 µM
[20] = second compound 1 µM, first compound 0.1 µM
[21] = second compound 1 µM, first compound 0.316 µM
[22] = second compound 1 µM, first compound 1 µM
[23] = second compound 1 µM, first compound 3.16 µM
[24] = second compound 1 µM, first compound 10 µM
[25] = second compound 3.16 µM, first compound 0.0316 µM
[26] = second compound 3.16 µM, first compound 0.1 µM
[27] = second compound 3.16 µM, first compound 0.316 µM
[28] = second compound 3.16 µM, first compound 1 µM
[29] = second compound 3.16 µM, first compound 3.16 µM
[30] = second compound 3.16 µM, first compound 10 µM
[31] = second compound 10 µM, first compound 0.0316 µM
[32] = second compound 10 µM, first compound 0.1 µM
[33] = second compound 10 µM, first compound 0.316 µM
[34] = second compound 10 µM, first compound 1 µM
[35] = second compound 10 µM, first compound 3.16 µM
[36] = second compound 10 µM, first compound 10 µM
[37] = second compound 0.0316 µM, first compound 0.00316 µM
[38] = second compound 0.0316 µM, first compound 0.01 µM
[39] = second compound 0.1 µM, first compound 0.00316 µM
[40] = second compound 0.1 µM, first compound 0.01 µM
[41] = second compound 0.316 µM, first compound 0.00316 µM
[42] = second compound 0.316 µM, first compound 0.01 µM
[43] = second compound 1 µM, first compound 0.00316 µM
[44] = second compound 1 µM, first compound 0.01 µM
[45] = second compound 3.16 µM, first compound 0.00316 µM
[46] = second compound 3.16 µM, first compound 0.01 µM
[47] = second compound 10 µM, first compound 0.00316 µM
[48] = second compound 10 µM, first compound 0.01 µM
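Note: spheroids exposed to compound for 7 days before viability read.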
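Throughout, for viability, T/C: 100% = DMSO vehicle-treated spheroids.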

CC(C)NCC(C(=O)N1CCN(c2ncnc3c2C(C)CC3O)CC1)c1ccc(Cl)cc1 (stereo not drawn) + CC(Nc1ncnc2nc[nH]c12)c1cc2cccc(Cl)c2c(=O)n1-c1ccccc1
IC50 (second compound 0.0316 µM): 388 nM
IC50 (second compound 0.1 µM): 293 nM
IC50 (second compound 0.316 µM): 393 nM
IC50 (second compound 1 µM): 401 nM
IC50 (second compound 3.16 µM): 357 nM
IC50 (second compound 10 µM): 150 nM
viability, T/C [1]: 96.1%
viability, T/C [2]: 83.8%
viability, T/C [3]: 54.5%
viability, T/C [4]: 27.6%
viability, T/C [5]: 14.6%
viability, T/C [6]: 11.4%
viability, T/C [7]: 97.6%
viability, T/C [8]: 73.1%
viability, T/C [9]: 48.4%
viability, T/C [10]: 29.4%
viability, T/C [11]: 14.6%
viability, T/C [12]: 10.1%
viability, T/C [13]: 80%
viability, T/C [14]: 82.8%
viability, T/C [15]: 50.9%
viability, T/C [16]: 30%
viability, T/C [17]: 14.4%
viability, T/C [18]: 9.02%
viability, T/C [19]: 93.2%
viability, T/C [20]: 81%
viability, T/C [21]: 55.9%
viability, T/C [22]: 28%
viability, T/C [23]: 12.5%
viability, T/C [24]: 8.65%
viability, T/C [25]: 78.6%
viability, T/C [26]: 75.1%
viability, T/C [27]: 51.2%
viability, T/C [28]: 27.1%
viability, T/C [29]: 11.5%
viability, T/C [30]: 8.08%
viability, T/C [31]: 57%
viability, T/C [32]: 53.6%
viability, T/C [33]: 43%
viability, T/C [34]: 21.6%
viability, T/C [35]: 9.56%
viability, T/C [36]: 5.96%

CCN1CCN(Cc2ccc(Nc3ncc(F)c(-c4cc(F)c5nc(C)n(C(C)C)c5c4)n3)nc2)CC1 + CC(Nc1ncnc2nc[nH]c12)c1cc2cccc(Cl)c2c(=O)n1-c1ccccc1
IC50 (second compound 0.0316 µM): > 1000 nM
IC50 (second compound 0.1 µM): > 1000 nM
IC50 (second compound 0.316 µM): > 1000 nM
IC50 (second compound 1 µM): > 1000 nM
IC50 (second compound 3.16 µM): > 1000 nM
IC50 (second compound 10 µM): > 1000 nM
viability, T/C [37]: 96.4%
viability, T/C [38]: 98.5%
viability, T/C [1]: 103%
viability, T/C [2]: 98%
viability, T/C [3]: 122%
viability, T/C [4]: 117%
viability, T/C [39]: 99%
viability, T/C [40]: 95.5%
viability, T/C [7]: 99.8%
viability, T/C [8]: 110%
viability, T/C [9]: 113%
viability, T/C [10]: 118%
viability, T/C [41]: 95.4%
viability, T/C [42]: 103%
viability, T/C [13]: 103%
viability, T/C [14]: 105%
viability, T/C [15]: 111%
viability, T/C [16]: 116%
viability, T/C [43]: 92.7%
viability, T/C [44]: 98.4%
viability, T/C [19]: 97.5%
viability, T/C [20]: 108%
viability, T/C [21]: 114%
viability, T/C [22]: 114%
viability, T/C [45]: 95.5%
viability, T/C [46]: 94.8%
viability, T/C [25]: 72.9%
viability, T/C [26]: 98.6%
viability, T/C [27]: 104%
viability, T/C [28]: 101%
viability, T/C [47]: 67.5%
viability, T/C [48]: 61%
viability, T/C [31]: 69.5%
viability, T/C [32]: 72.5%
viability, T/C [33]: 80.8%
viability, T/C [34]: 84.3%

C[C@@H](NC(=O)c1ncnc(N)c1Cl)c1ncc(C(=O)Nc2cc(C(F)(F)F)c(Cl)cn2)s1 + CC(Nc1ncnc2nc[nH]c12)c1cc2cccc(Cl)c2c(=O)n1-c1ccccc1
IC50 (second compound 0.0316 µM): > 10000 nM
IC50 (second compound 0.1 µM): 9460 nM
IC50 (second compound 0.316 µM): 8250 nM
IC50 (second compound 1 µM): 7020 nM
IC50 (second compound 3.16 µM): 3020 nM
IC50 (second compound 10 µM): 666 nM
viability, T/C [1]: 76.3%
viability, T/C [2]: 81.8%
viability, T/C [3]: 86.3%
viability, T/C [4]: 104%
viability, T/C [5]: 79%
viability, T/C [6]: 51.3%
viability, T/C [7]: 92.4%
viability, T/C [8]: 96.4%
viability, T/C [9]: 88.2%
viability, T/C [10]: 93.4%
viability, T/C [11]: 76.5%
viability, T/C [12]: 48.5%
viability, T/C [13]: 92.7%
viability, T/C [14]: 78%
viability, T/C [15]: 93.2%
viability, T/C [16]: 83.2%
viability, T/C [17]: 79.4%
viability, T/C [18]: 44.1%
viability, T/C [19]: 99.6%
viability, T/C [20]: 92.8%
viability, T/C [21]: 96.4%
viability, T/C [22]: 93.8%
viability, T/C [23]: 69.4%
viability, T/C [24]: 41.4%
viability, T/C [25]: 90.1%
viability, T/C [26]: 74.8%
viability, T/C [27]: 78%
viability, T/C [28]: 77.9%
viability, T/C [29]: 48.8%
viability, T/C [30]: 30%
viability, T/C [31]: 63.8%
viability, T/C [32]: 60.8%
viability, T/C [33]: 54.6%
viability, T/C [34]: 48.5%
viability, T/C [35]: 33.4%
viability, T/C [36]: 21.2%

Cn1ncnc1[C@H]1c2n[nH]c(=O)c3cc(F)cc(c23)N[C@@H]1c1ccc(F)cc1 + CC(Nc1ncnc2nc[nH]c12)c1cc2cccc(Cl)c2c(=O)n1-c1ccccc1
IC50 (second compound 0.0316 µM): > 100 nM
IC50 (second compound 0.1 µM): > 100 nM
IC50 (second compound 0.316 µM): > 100 nM
IC50 (second compound 1 µM): > 100 nM
IC50 (second compound 3.16 µM): > 100 nM
IC50 (second compound 10 µM): > 100 nM
viability, T/C (second compound 0.0316 µM, first compound 0.000316 µM): 88.4%
viability, T/C (second compound 0.0316 µM, first compound 0.001 µM): 96.4%
viability, T/C [37]: 93.4%
viability, T/C [38]: 104%
viability, T/C [1]: 97.3%
viability, T/C [2]: 92.1%
viability, T/C (second compound 0.1 µM, first compound 0.000316 µM): 102%
viability, T/C (second compound 0.1 µM, first compound 0.001 µM): 98.6%
viability, T/C [39]: 88.8%
viability, T/C [40]: 109%
viability, T/C [7]: 90.6%
viability, T/C [8]: 102%
viability, T/C (second compound 0.316 µM, first compound 0.000316 µM): 93.2%
viability, T/C (second compound 0.316 µM, first compound 0.001 µM): 99.5%
viability, T/C [41]: 92.1%
viability, T/C [42]: 106%
viability, T/C [13]: 90.1%
viability, T/C [14]: 95.8%
viability, T/C (second compound 1 µM, first compound 0.000316 µM): 82%
viability, T/C (second compound 1 µM, first compound 0.001 µM): 100%
viability, T/C [43]: 105%
viability, T/C [44]: 103%
viability, T/C [19]: 97.1%
viability, T/C [20]: 98.2%
viability, T/C (second compound 3.16 µM, first compound 0.000316 µM): 83.5%
viability, T/C (second compound 3.16 µM, first compound 0.001 µM): 91.3%
viability, T/C [45]: 85.1%
viability, T/C [46]: 93.2%
viability, T/C [25]: 92.5%
viability, T/C [26]: 78.1%
viability, T/C (second compound 10 µM, first compound 0.000316 µM): 61.6%
viability, T/C (second compound 10 µM, first compound 0.001 µM): 64.7%
viability, T/C [47]: 60.5%
viability, T/C [48]: 60.8%
viability, T/C [31]: 57.2%
viability, T/C [32]: 57.6%
